± gives the expanded uncertainty stated by the source.
Key:
[1] = Ring tensiometer
[2] = xn = mol fraction of the nth substance listed; settings: Ring tensiometer

Compound: OCCO [1,2-ethanediol]
- surface tension liquid-gas ([1]; 293.15 K): 48.9 ± 0.7 mN/m
- surface tension liquid-gas ([1]; 298.15 K): 48.6 ± 0.7 mN/m
- surface tension liquid-gas ([1]; 303.15 K): 48.1 ± 0.7 mN/m
- surface tension liquid-gas ([1]; 308.15 K): 47.5 ± 0.6 mN/m
- surface tension liquid-gas ([1]; 313.15 K): 47.1 ± 0.6 mN/m
- surface tension liquid-gas ([1]; 318.15 K): 46.4 ± 0.6 mN/m
- surface tension liquid-gas ([1]; 323.15 K): 45.9 ± 0.6 mN/m

Compound: OCCO [1,2-ethanediol] + CCO
- surface tension liquid-gas ([2]; 293.15 K, x2 = 0): 48.9 ± 0.7 mN/m
- surface tension liquid-gas ([2]; 293.15 K, x2 = 0.1): 42 ± 0.6 mN/m
- surface tension liquid-gas ([2]; 293.15 K, x2 = 0.3): 32.9 ± 0.5 mN/m
- surface tension liquid-gas ([2]; 293.15 K, x2 = 0.5): 28.5 ± 0.4 mN/m
- surface tension liquid-gas ([2]; 293.15 K, x2 = 0.6): 26.9 ± 0.4 mN/m
- surface tension liquid-gas ([2]; 293.15 K, x2 = 0.7): 25 ± 0.4 mN/m
- surface tension liquid-gas ([2]; 293.15 K, x2 = 0.9): 23.1 ± 0.4 mN/m
- surface tension liquid-gas ([2]; 298.15 K, x2 = 0): 48.6 ± 0.7 mN/m
- surface tension liquid-gas ([2]; 298.15 K, x2 = 0.1): 41.8 ± 0.6 mN/m
- surface tension liquid-gas ([2]; 298.15 K, x2 = 0.3): 32.7 ± 0.5 mN/m
- surface tension liquid-gas ([2]; 298.15 K, x2 = 0.5): 28.3 ± 0.4 mN/m
- surface tension liquid-gas ([2]; 298.15 K, x2 = 0.6): 26.4 ± 0.4 mN/m
- surface tension liquid-gas ([2]; 298.15 K, x2 = 0.7): 24.9 ± 0.4 mN/m
- surface tension liquid-gas ([2]; 298.15 K, x2 = 0.9): 22.68 ± 0.34 mN/m
- surface tension liquid-gas ([2]; 303.15 K, x2 = 0): 48.1 ± 0.7 mN/m
- surface tension liquid-gas ([2]; 303.15 K, x2 = 0.1): 41.4 ± 0.6 mN/m
- surface tension liquid-gas ([2]; 303.15 K, x2 = 0.3): 32.2 ± 0.5 mN/m
- surface tension liquid-gas ([2]; 303.15 K, x2 = 0.5): 27.8 ± 0.4 mN/m
- surface tension liquid-gas ([2]; 303.15 K, x2 = 0.6): 26.1 ± 0.4 mN/m
- surface tension liquid-gas ([2]; 303.15 K, x2 = 0.7): 24.7 ± 0.4 mN/m
- surface tension liquid-gas ([2]; 303.15 K, x2 = 0.9): 22.33 ± 0.34 mN/m
- surface tension liquid-gas ([2]; 308.15 K, x2 = 0): 47.5 ± 0.6 mN/m
- surface tension liquid-gas ([2]; 308.15 K, x2 = 0.1): 41.2 ± 0.6 mN/m
- surface tension liquid-gas ([2]; 308.15 K, x2 = 0.3): 31.6 ± 0.5 mN/m
- surface tension liquid-gas ([2]; 308.15 K, x2 = 0.5): 27.4 ± 0.4 mN/m
- surface tension liquid-gas ([2]; 308.15 K, x2 = 0.6): 25.8 ± 0.4 mN/m
- surface tension liquid-gas ([2]; 308.15 K, x2 = 0.7): 24.4 ± 0.4 mN/m
- surface tension liquid-gas ([2]; 308.15 K, x2 = 0.9): 22.05 ± 0.33 mN/m
- surface tension liquid-gas ([2]; 313.15 K, x2 = 0): 47.1 ± 0.6 mN/m
- surface tension liquid-gas ([2]; 313.15 K, x2 = 0.1): 41 ± 0.6 mN/m
- surface tension liquid-gas ([2]; 313.15 K, x2 = 0.3): 31.1 ± 0.4 mN/m
- surface tension liquid-gas ([2]; 313.15 K, x2 = 0.5): 27 ± 0.4 mN/m
- surface tension liquid-gas ([2]; 313.15 K, x2 = 0.6): 25.4 ± 0.4 mN/m
- surface tension liquid-gas ([2]; 313.15 K, x2 = 0.7): 24 ± 0.4 mN/m
- surface tension liquid-gas ([2]; 313.15 K, x2 = 0.9): 21.8 ± 0.3 mN/m
- surface tension liquid-gas ([2]; 318.15 K, x2 = 0): 46.4 ± 0.6 mN/m
- surface tension liquid-gas ([2]; 318.15 K, x2 = 0.1): 40.6 ± 0.6 mN/m
- surface tension liquid-gas ([2]; 318.15 K, x2 = 0.3): 30.8 ± 0.4 mN/m
- surface tension liquid-gas ([2]; 318.15 K, x2 = 0.5): 26.7 ± 0.4 mN/m
- surface tension liquid-gas ([2]; 318.15 K, x2 = 0.6): 25 ± 0.4 mN/m
- surface tension liquid-gas ([2]; 318.15 K, x2 = 0.7): 23.6 ± 0.4 mN/m
- surface tension liquid-gas ([2]; 318.15 K, x2 = 0.9): 21.55 ± 0.33 mN/m
- surface tension liquid-gas ([2]; 323.15 K, x2 = 0): 45.9 ± 0.6 mN/m
- surface tension liquid-gas ([2]; 323.15 K, x2 = 0.1): 39.8 ± 0.6 mN/m
- surface tension liquid-gas ([2]; 323.15 K, x2 = 0.3): 30.7 ± 0.4 mN/m
- surface tension liquid-gas ([2]; 323.15 K, x2 = 0.5): 26.5 ± 0.4 mN/m
- surface tension liquid-gas ([2]; 323.15 K, x2 = 0.6): 24.8 ± 0.4 mN/m
- surface tension liquid-gas ([2]; 323.15 K, x2 = 0.7): 23.2 ± 0.4 mN/m
- surface tension liquid-gas ([2]; 323.15 K, x2 = 0.9): 21.1 ± 0.3 mN/m

Compound: CCO [ethanol]
- surface tension liquid-gas ([1]; 293.15 K): 22.3 ± 0.3 mN/m
- surface tension liquid-gas ([1]; 298.15 K): 21.8 ± 0.3 mN/m
- surface tension liquid-gas ([1]; 303.15 K): 21.4 ± 0.3 mN/m
- surface tension liquid-gas ([1]; 308.15 K): 21.1 ± 0.3 mN/m
- surface tension liquid-gas ([1]; 313.15 K): 20.8 ± 0.3 mN/m
- surface tension liquid-gas ([1]; 318.15 K): 20.5 ± 0.3 mN/m
- surface tension liquid-gas ([1]; 323.15 K): 20 ± 0.3 mN/m

Compound: CCO [ethanol] + OCCO
- surface tension liquid-gas ([2]; 293.15 K, x1 = 1): 22.3 ± 0.3 mN/m
- surface tension liquid-gas ([2]; 298.15 K, x1 = 1): 21.8 ± 0.3 mN/m
- surface tension liquid-gas ([2]; 303.15 K, x1 = 1): 21.4 ± 0.3 mN/m
- surface tension liquid-gas ([2]; 308.15 K, x1 = 1): 21.1 ± 0.3 mN/m
- surface tension liquid-gas ([2]; 313.15 K, x1 = 1): 20.8 ± 0.3 mN/m
- surface tension liquid-gas ([2]; 318.15 K, x1 = 1): 20.5 ± 0.3 mN/m
- surface tension liquid-gas ([2]; 323.15 K, x1 = 1): 20 ± 0.3 mN/m
